Results taken from patent US20190292155A1, “THERAPEUTIC INHIBITORY COMPOUNDS” (LifeSci Pharmaceuticals, Inc., priority 2016, published 2019).
Like-named read-outs stand apart in the source and are kept apart here.

Legend:
[1] = biological target: T1, human complement factor D (Homo sapiens, UniProt P00746); experiment: In vitro enzyme inhibition of human complement factor D (Z-Lys-SBzl/DTNB, A405); type: biochemical
T1 construct: purchased R&D Systems 1824-SE
Outline: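 Buffer 50 mM Tris/HCl pH 7.5, 1 M NaCl, 0.5% final DMSO; compounds pre-incubated with enzyme 5 min at room temperature, then Z-Lys-SBzl with DTNB added (each diluted to 200 μM before addition).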

[2] = test system: alternative pathway (AP) hemolytic activity; experiment: AP hemolysis inhibition assay; type: cell-based; conditions: Normal Human Serum, chicken or rabbit erythrocytes
Experimental: The ability of the compounds disclosed herein to inhibit alternative pathway (AP) hemolytic activity was determined. […] In 100 μL reaction system, 1300 to […] final concentration of Normal Human Serum (CompTech) was incubated with compound for 15 min at 37° C. Then 2×10^6 cells/well of chicken or rabbit erythrocytes in assay buffer were added and incubated for an additional 60 min at 37° C. Positive control (100% lysis) consists of serum and RBC, and negative control (0% lysis) consists of assay buffer and RBC only. Samples were centrifuged at 2000 g for 5 min, and supernatants collected. […] Percentage lysis in each sample is calculated relative to positive control (100% lysis).

[3] = biochemical assay, substrate Z-Lys-SBzl, read-out: CFD IC50

T1 sequence (P00746 26-253): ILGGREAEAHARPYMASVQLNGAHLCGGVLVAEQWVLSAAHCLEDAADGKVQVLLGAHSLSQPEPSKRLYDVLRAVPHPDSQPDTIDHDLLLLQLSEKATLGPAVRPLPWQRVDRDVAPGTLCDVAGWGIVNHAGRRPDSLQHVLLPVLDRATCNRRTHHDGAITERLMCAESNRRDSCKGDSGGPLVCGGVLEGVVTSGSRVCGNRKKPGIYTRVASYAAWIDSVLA

SMILES	IC50 [1, 3] [nM]	EC50 [2] [nM]	IC50 [1] [nM]
NC(=O)c1nc(NC(=O)N(CC(=O)NCc2cccc(Cl)c2F)C2CC2)c2ccccn12 [Example 53, 1-(3-(2-((3-chloro-2-fluorobenzyl)amino)-2-oxoethyl)-3-cyclopropylureido)imidazo[1,5-a]pyridine-3-carboxamide]	100 to 1000	100 to 1000	–
NC(=O)c1nn(CC(=O)N(CC(=O)NCc2cccc(Cl)c2F)C2CC2)c2cnccc12 [Example 40, 1-(2-((2-((3-chloro-2-fluorobenzyl)amino)-2-oxoethyl)(cyclopropyl)amino)-2-oxoethyl)-1H-pyrazolo[3,4-c]pyridine-3-carboxamide]	< 100	100 to 1000	–
NC(=O)n1nc(CC(=O)N(CC(=O)NCc2cccc(Cl)c2F)C2CC2)c2ccccc21 [Example 8, 3-(2-((2-((3-chloro-2-fluorobenzyl)amino)-2-oxoethyl)(cyclopropyl)amino)-2-oxoethyl)-1H-indazole-1-carboxamide]	< 100	100 to 1000	–
CC(C)N(CC(=O)NCc1cccc(Cl)c1F)C(=O)Nc1cn(C(N)=O)c2ccccc12 [Example 50, 3-(3-(2-((3-chloro-2-fluorobenzyl)amino)-2-oxoethyl)-3-isopropylureido)-1H-indole-1-carboxamide]	100 to 1000	1000 to 10000	–
CC(=O)c1nn(CC(=O)N(CC(=O)NCc2cccc(Cl)c2F)C2CC2)c2ccccc12 [Example 47, 2-(3-acetyl-1H-indazol-1-yl)-N-(2-((3-chloro-2-fluorobenzyl)amino)-2-oxoethyl)-N-cyclopropylacetamide]	< 100	100 to 1000	–
CC(C)N(CC(=O)Nc1cccc(Cl)n1)C(=O)Cn1nc(C(N)=O)c2ccccc21 [Example 12, 1-(2-((2-((6-chloropyridin-2-yl)amino)-2-oxoethyl)(isopropyl)amino)-2-oxoethyl)-1H-indazole-3-carboxamide]	–	100 to 1000	100 to 1000
NC(=O)n1nc(CC(=O)N(CC(=O)Nc2cccc(Cl)n2)C2CCC2)c2ccccc21 [Example 20, 3-(2-((2-((6-chloropyridin-2-yl)amino)-2-oxoethyl)(cyclobutyl)amino)-2-oxoethyl)-1H-indazole-1-carboxamide]	100 to 1000	100 to 1000	–
NC(=O)c1nn(CC(=O)N(CC(=O)Nc2cccc(Cl)n2)C2CC2)c2ccccc12 [Example 16, 1-(2-((2-((6-chloropyridin-2-yl)amino)-2-oxoethyl)(cyclopropyl)amino)-2-oxoethyl)-1H-indazole-3-carboxamide]	–	100 to 1000	100 to 1000
